# Experiments:
# [1] = biological target: ATP-dependent translocase ABCB1 (Homo sapiens, UniProt P08183); test: TP_TRANSPORTER: cell accumulation in CCRF-CEM and CEM/VLB100 cells; assay type: functional, cell-based
# [2] = biological target: ATP-binding cassette sub-family C member 2 (Homo sapiens, UniProt Q92887); test: TP_TRANSPORTER: inhibition of LTC4 uptake (LTC4: 0.05 uM, MK571: 10 uM) in membrane vesicles from MRP2-expressing MDCK cells; assay type: functional, cell membranes, Membrane vesicle; conditions: dog
# ATP-binding cassette sub-family C member 2, sequence (Q92887 whole entry): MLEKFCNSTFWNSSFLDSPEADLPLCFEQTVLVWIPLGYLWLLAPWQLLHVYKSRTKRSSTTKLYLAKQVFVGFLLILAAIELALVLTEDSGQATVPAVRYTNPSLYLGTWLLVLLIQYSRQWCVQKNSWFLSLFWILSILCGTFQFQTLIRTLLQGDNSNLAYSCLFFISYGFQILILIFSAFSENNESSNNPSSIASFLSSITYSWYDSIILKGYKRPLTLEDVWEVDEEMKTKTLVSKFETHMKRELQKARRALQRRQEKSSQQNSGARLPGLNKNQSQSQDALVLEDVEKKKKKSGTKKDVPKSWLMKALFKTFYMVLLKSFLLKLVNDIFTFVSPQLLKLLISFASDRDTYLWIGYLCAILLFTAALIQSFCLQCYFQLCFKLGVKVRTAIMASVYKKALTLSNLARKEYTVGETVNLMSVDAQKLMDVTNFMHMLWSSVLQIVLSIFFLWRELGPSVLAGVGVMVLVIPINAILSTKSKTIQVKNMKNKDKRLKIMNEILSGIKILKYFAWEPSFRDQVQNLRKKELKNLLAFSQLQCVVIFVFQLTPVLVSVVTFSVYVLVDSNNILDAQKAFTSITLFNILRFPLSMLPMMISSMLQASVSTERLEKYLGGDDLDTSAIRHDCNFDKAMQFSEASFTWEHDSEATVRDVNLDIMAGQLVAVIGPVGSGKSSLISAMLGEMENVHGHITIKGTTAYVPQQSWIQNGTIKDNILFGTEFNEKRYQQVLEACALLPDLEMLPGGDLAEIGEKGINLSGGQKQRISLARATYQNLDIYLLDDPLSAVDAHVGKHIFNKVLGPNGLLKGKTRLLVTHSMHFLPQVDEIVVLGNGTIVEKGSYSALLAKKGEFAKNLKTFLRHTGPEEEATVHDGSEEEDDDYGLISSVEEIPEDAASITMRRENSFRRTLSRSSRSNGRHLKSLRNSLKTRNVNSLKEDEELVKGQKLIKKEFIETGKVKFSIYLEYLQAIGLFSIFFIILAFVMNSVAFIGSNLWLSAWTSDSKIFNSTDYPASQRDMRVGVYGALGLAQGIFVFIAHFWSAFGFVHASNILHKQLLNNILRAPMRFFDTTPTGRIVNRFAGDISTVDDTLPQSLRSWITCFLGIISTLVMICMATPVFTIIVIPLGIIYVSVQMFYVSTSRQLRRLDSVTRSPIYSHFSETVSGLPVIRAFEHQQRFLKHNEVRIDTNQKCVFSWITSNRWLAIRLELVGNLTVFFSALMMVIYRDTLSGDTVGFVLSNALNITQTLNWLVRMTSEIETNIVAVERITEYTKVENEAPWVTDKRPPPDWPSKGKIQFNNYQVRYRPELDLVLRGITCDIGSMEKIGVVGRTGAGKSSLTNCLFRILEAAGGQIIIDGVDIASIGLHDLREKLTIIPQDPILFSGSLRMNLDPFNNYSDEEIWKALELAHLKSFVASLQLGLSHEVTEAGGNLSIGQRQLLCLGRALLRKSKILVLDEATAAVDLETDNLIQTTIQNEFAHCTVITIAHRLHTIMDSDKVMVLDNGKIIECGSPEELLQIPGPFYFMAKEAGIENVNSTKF
# ATP-dependent translocase ABCB1, sequence (P08183 whole entry): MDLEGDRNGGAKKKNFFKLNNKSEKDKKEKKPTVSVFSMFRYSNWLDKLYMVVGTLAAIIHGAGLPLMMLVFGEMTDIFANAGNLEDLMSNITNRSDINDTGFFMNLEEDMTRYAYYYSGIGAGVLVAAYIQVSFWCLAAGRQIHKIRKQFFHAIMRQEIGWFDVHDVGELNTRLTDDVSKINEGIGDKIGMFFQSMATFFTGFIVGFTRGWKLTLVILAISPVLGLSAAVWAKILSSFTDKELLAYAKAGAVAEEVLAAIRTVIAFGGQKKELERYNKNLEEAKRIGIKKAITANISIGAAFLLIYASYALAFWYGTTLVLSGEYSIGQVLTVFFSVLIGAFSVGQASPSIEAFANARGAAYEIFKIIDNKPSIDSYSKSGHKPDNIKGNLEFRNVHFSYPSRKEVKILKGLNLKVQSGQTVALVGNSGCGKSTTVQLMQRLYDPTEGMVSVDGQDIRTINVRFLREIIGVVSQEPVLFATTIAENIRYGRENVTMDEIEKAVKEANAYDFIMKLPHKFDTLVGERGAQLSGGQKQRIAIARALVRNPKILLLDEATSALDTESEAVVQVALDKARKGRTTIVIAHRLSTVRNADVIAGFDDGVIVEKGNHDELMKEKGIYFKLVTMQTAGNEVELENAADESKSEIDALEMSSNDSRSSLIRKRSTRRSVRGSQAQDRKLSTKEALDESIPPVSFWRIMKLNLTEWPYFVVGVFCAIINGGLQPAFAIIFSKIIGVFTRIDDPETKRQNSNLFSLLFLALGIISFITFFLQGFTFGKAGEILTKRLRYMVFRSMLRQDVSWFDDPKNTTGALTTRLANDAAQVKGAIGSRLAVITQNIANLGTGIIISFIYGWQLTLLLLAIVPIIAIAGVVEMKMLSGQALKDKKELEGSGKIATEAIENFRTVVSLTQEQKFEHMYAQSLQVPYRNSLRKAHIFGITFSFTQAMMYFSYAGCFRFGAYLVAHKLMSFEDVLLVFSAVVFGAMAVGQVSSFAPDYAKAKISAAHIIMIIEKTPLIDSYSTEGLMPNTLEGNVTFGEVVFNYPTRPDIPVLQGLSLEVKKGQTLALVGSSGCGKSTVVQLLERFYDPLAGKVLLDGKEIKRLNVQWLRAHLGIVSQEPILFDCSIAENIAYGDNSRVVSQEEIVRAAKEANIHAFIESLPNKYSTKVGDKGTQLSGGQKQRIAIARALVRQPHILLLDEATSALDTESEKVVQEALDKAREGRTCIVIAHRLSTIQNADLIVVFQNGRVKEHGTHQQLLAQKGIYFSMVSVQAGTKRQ
Activity [2],Structure (SMILES),Activity [1]
,Cl.Cl.Cl.O[C@@H](COc1cccc2ncccc12)CN1CCN([C@@H]2c3ccccc3[C@@H]3[C@H](c4ccccc42)C3(F)F)CC1 [ZOSUQUIDAR TRIHYDROCHLORIDE],is not a substrate [-]
,CC[C@]1(O)C[C@@H]2CN(CCc3c([nH]c4ccccc34)[C@@](C(=O)OC)(c3cc4c(cc3OC)N(C)[C@H]3[C@@](O)(C(=O)OC)[C@H](OC(C)=O)[C@]5(CC)C=CCN6CC[C@]43[C@@H]65)C2)C1 [VINBLASTINE],substrate [+]
inhibitor [+],CN(C)C(=O)CCSC(SCCC(=O)O)c1cccc(/C=C/c2ccc3ccc(Cl)cc3n2)c1 (stereo not drawn) [MK-571],
